Experimental data: patent US6458847B1, “Method for screening for drugs useful in inhibition of polymerization of aβ and tau peptides” (University of Alabama at Birmingham Research Foundation, priority 1995, dated 2002)

How the values were obtained:
Aβ1-40 [1] = molecular target: T1, Aβ1-40 (Homo sapiens, UniProt P05067); assay: Amyloid peptide assembly, electron microscopy; format: biochemical; conditions: 24 hour incubation with 40 mM oleic acid or 50 mM linoleic acid
T1 construct: Aβ1-40 (Amyloid β-protein, residues 1-40, Sigma); purchased Sigma
Method: (§1) Aβ1-40 (Amyloid β-protein, residues 1-40, Sigma) was resuspended in Aβ assembly buffer (100 mM Tris pH 7.4, 150 mM NaCl) at a concentration of 0.5 mg/ml, and frozen in aliquots at −80° C. Thawed aliquots were diluted to […] in assembly buffer, and following a 2 hour pre-incubation, were centrifuged for 10 min at 14,000 rpm in an Eppendorf 5415C desktop centrifuge. The clarified solution was then supplemented with free fatty acids (final Aβ concentration ˜[…]), and incubated for 24 hours. Care was taken to perform all procedures at 4° C.
For staining of amyloid filaments, 4% uranyl acetate was used and the H2O rinse was omitted. […] For filament length measurements, random micrographs obtained at a nominal magnification of 15K were digitized and traced using either software from Universal Imaging Corporation or the public domain NIH Image program (for Macintosh; written by W. Rasband at the NIH and available from the Internet by anonymous ftp from zippy.nimh.nih.gov or on floppy disk from NTIS, 5285 Port Royal Rd., Springfield, Va. 22161, part number PB93-504868). […] Because short filaments were sometimes difficult to distinguish from background debri in digitized images, high concentrations of DTT were routinely used in order to maximize the production of longer filaments.

Aβ1-40 [2] = molecular target: T1, Aβ1-40; assay: Amyloid peptide assembly, thioflavin T fluorescence spectroscopy; format: biochemical; conditions: for fatty acid concentration giving significant increases in polymer content: thioflavin T fluorescence, 24 hours
Method: as §1
Fluorescence spectroscopy was performed essentially as described (Castano et al., 1995). Aliquots were diluted 1/6 into 67 mM glycine pH 9, […] thioflavin T, vortexed, and placed in a quartz cuvette. Samples were read on a Perkin Elmer LS-50B luminescence spectrometer, excitation=435 nm, emission=485 nm, slit widths=5 nm. The integrated intensity was averaged from the initial ten, 10 sec sampling intervals. The signal was stable for at least several hours. The fluorescence of five samples lacking Aβ was averaged and subtracted as background from all readings.

juvenile rat MTτ = molecular target: T2, juvenile rat MTτ (Rattus norvegicus, UniProt P19332, DEL587-617); assay: Fatty acid dependence of tau assembly, polymer length per field by electron microscopy; format: biochemical; conditions: for Polymer Mass (μm/field) / % maximum: 50 μM free fatty acid, 72 hours; for Polymer Mass (μm/field): juvenile rat MTτ, average ± S.E.M. (n = 12); for % maximum: relative to the maximal assembly achieved with arachidonic acid; for stimulation of tau assembly, qualitative examination of grids: 50 μM, below measured CMC values
T2 construct: killed by decapitation at postnatal day 11 (juveniles); from tissue; host or cells: brain microtubules of P11 Sprague-Dawley rats
Method: All free fatty acids were purchased in the cis conformation and at maximum available purity from Sigma Chemical Company free fatty acids were diluted into tau and amyloid samples from a 200× ethanolic stock, such that the final ethanol concentration in all samples and controls was 0.5%.
Assembly was performed at 37° C. in siliconized microfuge tubes.
For staining of amyloid filaments, 4% uranyl acetate was used and the H2O rinse was omitted. […] Because short filaments were sometimes difficult to distinguish from background debri in digitized images, high concentrations of DTT were routinely used in order to maximize the production of longer filaments.

[3] = Critical micellar concentration by phase partitioning of phenylnaphthylamine; format: physicochemical; conditions: free fatty acids diluted into assembly buffer
Method: All free fatty acids were purchased in the cis conformation and at maximum available purity from Sigma Chemical Company free fatty acids were diluted into tau and amyloid samples from a 200× ethanolic stock, such that the final ethanol concentration in all samples and controls was 0.5%. Values for the critical micellar concentration (CMC) were obtained based on the phase partitioning of […] phenylnaphthylamine (Kovatchev et al., 1981) when free fatty acids were diluted into assembly buffer.
For most experiments, tau proteins were diluted to 2× the desired concentration in buffer A, then 1/2 in borate saline (0.1 M H3BO3, 25 mM Na2B4O7, 75 mM NaCl) supplemented with 20 mM dithiothreitol (DTT) and 2× the required concentration of free fatty acids (final pH ˜8.4). Assembly was performed at 37° C. in siliconized microfuge tubes. For evaluating the dependence of assembly on ionic strength, tau was diluted 1/10 into 111 mM Tris pH 7.2, 11 mM DTT, supplemented to give the indicated final concentrations of NaCl. At 250 mM NaCl, the measured CMC of arachidonic acid in the Tris buffering system was >2 mM.

adult rat MTτ = assay: Arachidonic acid dependence of tau assembly, adult rat MTτ; format: biochemical; conditions: assembly at 10 mM DTT compared with 0.01-1.0 mM DTT; adult tau, 50 μM arachidonic acid
Method: For most experiments, tau proteins were diluted to 2× the desired concentration in buffer A, then 1/2 in borate saline (0.1 M H3BO3, 25 mM Na2B4O7, 75 mM NaCl) supplemented with 20 mM dithiothreitol (DTT) and 2× the required concentration of free fatty acids (final pH ˜8.4). Assembly was performed at 37° C. in siliconized microfuge tubes. For evaluating the dependence of assembly on ionic strength, tau was diluted 1/10 into 111 mM Tris pH 7.2, 11 mM DTT, supplemented to give the indicated final concentrations of NaCl. At 250 mM NaCl, the measured CMC of arachidonic acid in the Tris buffering system was >2 mM. […] For staining of amyloid filaments, 4% uranyl acetate was used and the H2O rinse was omitted. […] For filament length measurements, random micrographs obtained at a nominal magnification of 15K were digitized and traced using either software from Universal Imaging Corporation or the public domain NIH Image program (for Macintosh; written by W. Rasband at the NIH and available from the Internet by anonymous ftp from zippy.nimh.nih.gov or on floppy disk from NTIS, 5285 Port Royal Rd., Springfield, Va. 22161, part number PB93-504868). […] Because short filaments were sometimes difficult to distinguish from background debri in digitized images, high concentrations of DTT were routinely used in order to maximize the production of longer filaments.

T1 sequence (P05067 672-711 limits assumed): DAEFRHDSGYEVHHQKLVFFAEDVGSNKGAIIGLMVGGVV
T2 sequence (P19332 with tags, fused parts or gaps isoform P19332-6 DEL209-239): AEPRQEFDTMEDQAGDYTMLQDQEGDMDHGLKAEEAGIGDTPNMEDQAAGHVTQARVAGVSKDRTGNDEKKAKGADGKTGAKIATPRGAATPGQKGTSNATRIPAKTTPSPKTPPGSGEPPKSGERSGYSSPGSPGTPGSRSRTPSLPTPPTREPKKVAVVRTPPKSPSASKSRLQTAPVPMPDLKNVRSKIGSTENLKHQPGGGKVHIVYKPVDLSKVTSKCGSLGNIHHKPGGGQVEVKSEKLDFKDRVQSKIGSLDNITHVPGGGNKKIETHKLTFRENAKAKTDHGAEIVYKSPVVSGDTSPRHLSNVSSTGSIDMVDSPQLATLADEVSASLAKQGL

In the case of `CCCCC/C=C\C/C=C\CCCCCCCC(=O)O` [9,12-linoleic acid (18:2), 9,12-linoleic acid], the “amyloid filament lengths by electron microscopy” value (Aβ1-40 [1]) is reported as “dramatic increase in filament lengths”, the “relative potency as inducer of amyloid assembly” value (Aβ1-40 [2]; at higher concentrations of free fatty acids (above 40 μM)) is reported as “more potent inducer of amyloid assembly” and the “fatty acid concentration giving significant increases in polymer content” value (Aβ1-40 [2]) is reported as 40 µM. The “Polymer Mass (μm/field)” value (juvenile rat MTτ) was 14.74 ± 3.31 μm/field, the “% maximum” value (juvenile rat MTτ) was 60% and the CMC [3] was 0.21 mM.

In the case of `CCCCC/C=C\C/C=C\C/C=C\C/C=C\CCCC(=O)OCC` [ethyl ester of arachidonic acid], the “stimulation of tau assembly, qualitative examination of grids” value (juvenile rat MTτ) is reported as “did not appear to be stimulated”.

With `CCC=CCC=CCC=CCC=CCC=CCCCC(=O)O` [5,8,11,14,17-eicosapentaenoic acid] the “Polymer Mass (μm/field)” value (juvenile rat MTτ) was 11.81 ± 1.51 μm/field and the “% maximum” value (juvenile rat MTτ) was 48%.

In the case of `CCCCC/C=C\C/C=C\C/C=C\C/C=C\CCCC(=O)OC` [methyl ester of arachidonic acid], the “stimulation of tau assembly, qualitative examination of grids” value (juvenile rat MTτ) is reported as “did not appear to be stimulated”.

For `CCCCCCCCC=CCCCCCCCCCC(=O)O` [11-eicosenoic acid (20:1), 11-eicosenoic acid], the “Polymer Mass (μm/field)” value (juvenile rat MTτ) was 8.23 ± 1.36 μm/field and the “% maximum” value (juvenile rat MTτ) was 34%.

For `CCCCCCCCCCCCCCCCCC(=O)O` [stearic acid (18:0), stearic acid], the “Polymer Mass (μm/field)” value (juvenile rat MTτ) was 3.60 ± 0.54 μm/field, the “% maximum” value (juvenile rat MTτ) was 15% and the CMC [3] was greater than 1 mM.

In the case of `CCCCCC=CCC=CCCCCCCCCCC(=O)O` [11,14-eicosadienoic acid (20:2), 11,14-eicosadienoic acid], the “Polymer Mass (μm/field)” value (juvenile rat MTτ) is reported as 1.20 ± 0.32 μm/field and the “% maximum” value (juvenile rat MTτ) is reported as 5%.

In the case of `CCCCCCCC/C=C\CCCCCCCC(=O)O` [9-oleic acid (18:1), 9-oleic acid], the “amyloid filament lengths by electron microscopy” value (Aβ1-40 [1]) is reported as “dramatic increase in filament lengths”, the “fatty acid concentration giving significant increases in polymer content” value (Aβ1-40 [2]) is reported as 40 µM and the “Polymer Mass (μm/field)” value (juvenile rat MTτ) is reported as 7.36 ± 1.77 μm/field. For the same compound, the “% maximum” value (juvenile rat MTτ) was 30% and the CMC [3] was 0.59 mM.

In the case of `CCCCCCCCCCCCCCCC(=O)O` [palmitic acid (16:0), palmitic acid], the “Polymer Mass (μm/field)” value (juvenile rat MTτ) is reported as 7.37 ± 0.92 μm/field and the “% maximum” value (juvenile rat MTτ) is reported as 30%.

For `CCCCCC/C=C\CCCCCCCC(=O)O` [9-palmitoleic acid (16:1), 9-palmitoleic acid], the “Polymer Mass (μm/field)” value (juvenile rat MTτ) was 23.69 ± 4.11 μm/field, the “% maximum” value (juvenile rat MTτ) was 97% and the CMC [3] was 0.44 mM.

In the case of `CC/C=C\C/C=C\C/C=C\CCCCCCCC(=O)O` [9,12,15-linolenic acid (18:3), 9,12,15-linolenic acid], the “Polymer Mass (μm/field)” value (juvenile rat MTτ) is reported as 4.01 ± 0.72 μm/field and the “% maximum” value (juvenile rat MTτ) is reported as 16%.

With `CCCCCC=CCC=CCC=CCCCCCCC(=O)O` [8,11,14-eicosatrienoic acid (20:3), 8,11,14-eicosatrienoic acid] the “Polymer Mass (μm/field)” value (juvenile rat MTτ) was 7.99 ± 1.55 μm/field and the “% maximum” value (juvenile rat MTτ) was 33%.

For `CCCCCCCCCCCCCC(=O)O` [myristic acid (14:0), myristic acid], the “Polymer Mass (μm/field)” value (juvenile rat MTτ) was 5.50 ± 0.76 μm/field, the “% maximum” value (juvenile rat MTτ) was 22% and the CMC [3] was greater than 1 mM.

In the case of `O[C@H](CS)[C@H](O)CS` (racemic) [DTT, dithiothreitol], the “decrease in total polymer mass” value (adult rat MTτ) is reported as greater than 50%.
